Assay results as given in patent US20240041042A1, “1-(PYRIDYL)-5-AZINYLPYRAZOLE DERIVATIVES, AND THEIR USE FOR CONTROL OF UNDESIRED PLANT GROWTH” (Bayer Aktiengesellschaft, priority 2020, published 2024).
Like-named read-outs stand apart in the source and are kept apart here. Values belong to the molecule of their own block, whether it stands above or below them.

Key:
Assay type in all cases: in vivo
[1] = test system: Alopecurus myosuroides (ALOMY); experiment: Pre-emergence herbicidal action against ALOMY; conditions: scored visually after about 3 weeks, 100% = plants have died
Method in brief: (§1)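 Dosages of 320 g/ha or less; pre-emergence; WP or EC in aqueous spray, 0.5% additive, 600 l/ha; greenhouse; visual % effect after ~3 wk relative to control pots.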

[2] = test system: Amaranthus retroflexus (AMARE); experiment: Pre-emergence herbicidal action against AMARE; conditions: visual scoring after about 3 weeks vs untreated controls
Method in brief: as §1

[3] = test system: Avena fatua (AVEFA); experiment: Pre-emergence herbicidal action against AVEFA; conditions: visual scoring after about 3 weeks vs untreated controls
Method in brief: as §1

[4] = test system: Echinochloa crus-galli (ECHCG); experiment: Pre-emergence herbicidal action against ECHCG; conditions: dosage 320 g/ha
Method in brief: as §1

[5] = test system: Lolium rigidum (LOLRI); experiment: Pre-emergence herbicidal action against LOLRI
Method in brief: as §1

[6] = test system: Matricaria inodora (MATIN); experiment: Pre-emergence herbicidal action against MATIN; conditions: dosage 320 g/ha
Method in brief: as §1

[7] = test system: Pharbitis purpurea (PHBPU); experiment: Pre-emergence herbicidal action against PHBPU; conditions: dosage 320 g/ha
Method in brief: as §1

[8] = test system: Polygonum convolvulus (POLCO); experiment: Pre-emergence herbicidal action against POLCO
Method in brief: as §1

[9] = test system: Setaria viridis (SETVI); experiment: Pre-emergence herbicidal action against SETVI
Method in brief: as §1

[10] = test system: Verconica persica (VERPE); experiment: Pre-emergence herbicidal action against VERPE; conditions: dosage 320 g/ha
Method in brief: as §1

[11] = test system: Viola tricolor (VIOTR); experiment: Pre-emergence herbicidal action against VIOTR
Method in brief: as §1

[12] = test system: Oryza sativa (ORYSA); conditions: crop plant compatibility; for Pre-emergence action against ORYSA in %: in comparison to untreated controls
Method in brief: (§2)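 Crop injury rated visually in percent against untreated plants roughly 3 weeks after treatment (0% no effect, 100% plants dead). Compounds, as WP or EC with 0.5% additive in 600 l/ha water, were applied to the covering soil right after sowing; greenhouse growth. Suffixes a, b, c denote different dosages.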

[13] = test system: Zea mays (ZEAMX); conditions: crop plant compatibility; for Pre-emergence action against ZEAMX in %: in comparison to untreated controls
Method in brief: as §2

[14] = test system: Abutilon theophrasti (ABUTH); experiment: Post-emergence herbicidal action against ABUTH; conditions: visual rating about 3 weeks after treatment vs untreated controls (100% = plants have died, 0% = like control plants)
Method in brief: (§3)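 Values are percent visual activity (0% like control, 100% plants dead) after about 3 weeks in the greenhouse. Treatment: post-emergence spray at one-leaf stage, 600 l/ha spray volume, 0.5% additive, doses 320 g/ha or lower.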

[15] = test system: Alopecurus myosuroides (ALOMY); experiment: Post-emergence herbicidal action against ALOMY; conditions: visual rating about 3 weeks after treatment vs untreated controls (100% = plants have died, 0% = like control plants)
Method in brief: as §3

[16] = test system: Amaranthus retroflexus (AMARE); experiment: Post-emergence herbicidal action against AMARE
Method in brief: as §3

[17] = test system: Avena fatua (AVEFA); experiment: Post-emergence herbicidal action against AVEFA; conditions: visual rating about 3 weeks after treatment
Method in brief: as §3

[18] = test system: Echinochloa crus-galli (ECHCG); experiment: Post-emergence herbicidal action against ECHCG
Method in brief: as §3

[19] = test system: Lolium rigidum (LOLRI); experiment: Post-emergence herbicidal action against LOLRI
Method in brief: as §3

[20] = test system: Matricaria inodora (MATIN); experiment: Post-emergence herbicidal action against MATIN
Method in brief: as §3

[21] = test system: Pharbitis purpurea (PHBPU); experiment: Post-emergence herbicidal action against PHBPU
Method in brief: as §3

[22] = test system: Polygonum convolvulus (POLCO); experiment: Post-emergence herbicidal action against POLCO
Method in brief: as §3

[23] = test system: Setaria viridis (SETVI); experiment: Post-emergence herbicidal action against SETVI
Method in brief: as §3

[24] = test system: Verconica persica (VERPE); experiment: Post-emergence herbicidal action against VERPE
Method in brief: as §3

[25] = test system: Viola tricolor (VIOTR); experiment: Post-emergence herbicidal action against VIOTR; conditions: 320 g/ha
Method in brief: as §3

[26] = test system: Oryza sativa (ORYSA); conditions: crop plant compatibility, effect in comparison to untreated controls
Method in brief: (§4)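 Foliar application at the one-leaf stage: WP/EC formulation, 0.5% additive, 600 l/ha water. Greenhouse-grown in sandy loam. Endpoint is visual % injury relative to untreated controls at about 3 weeks.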

[27] = test system: Triticum aestivum (TRZAS); conditions: crop plant compatibility, 80 g/ha, effect vs untreated controls
Method in brief: as §4

[28] = test system: Zea mays (ZEAMX); conditions: crop plant compatibility, effect vs untreated controls
Method in brief: as §4

[29] = 20 g/ha, effect vs untreated controls
[30] = 80 g/ha, visual rating about 3 weeks after treatment vs untreated controls (100% = plants have died, 0% = like control plants)
[31] = 320 g/ha, visual rating about 3 weeks after treatment

Pre-emergence action against ORYSA [12, 29]: 0% | Pre-emergence action against ZEAMX [13, 29]: 0%
Structure (SMILES): CCOC(=O)COc1nn(-c2ccccn2)c(-c2ccc(F)nc2)c1Br [Example I-02]
Pre-emergence action against ALOMY ([1]; 80 g/ha): 100% | Pre-emergence action against ALOMY ([1]; 320 g/ha): 90% | Pre-emergence action against AMARE in % ([2]; 80 g/ha): 100% | Pre-emergence action against AMARE in % ([2]; 320 g/ha): 100% | Pre-emergence action against AVEFA in % ([3]; 80 g/ha): 90% | Pre-emergence action against AVEFA in % ([3]; 320 g/ha): 100% | Pre-emergence action against ECHCG in % [4]: 100% | Pre-emergence action against LOLRI in % ([5]; dosage 80 g/ha): 90% | Pre-emergence action against LOLRI in % ([5]; dosage 320 g/ha): 100% | Pre-emergence action against MATIN in % [6]: 100% | Pre-emergence action against PHBPU in % [7]: 90% | Pre-emergence action against POLCO in % ([8]; dosage 80 g/ha): 80% | Pre-emergence action against POLCO in % ([8]; dosage 320 g/ha): 80% | Pre-emergence action against SETVI in % ([9]; dosage 80 g/ha): 100% | Pre-emergence action against SETVI in % ([9]; dosage 320 g/ha): 100% | Pre-emergence action against VERPE in % [10]: 90% | Pre-emergence action against VIOTR in % ([11]; 320 g/ha, Viola tricolor): 100% | Pre-emergence action against VIOTR in % ([11]; dosage 80 g/ha): 100% | Post-emergence action against ABUTH in % ([14]; 80 g/ha): 80% | Post-emergence action against ABUTH in % ([14]; 320 g/ha): 80% | Post-emergence action against ALOMY in % ([15]; 80 g/ha): 80% | Post-emergence action against ALOMY in % ([15]; 320 g/ha): 100% | Post-emergence action against AMARE in % [16, 30]: 80% | Post-emergence action against AMARE in % [16, 31]: 80% | Post-emergence action against AVEFA in % ([17]; 320 g/ha): 80% | Post-emergence action against ECHCG in % ([18]; dosage 80 g/ha): 90% | Post-emergence action against ECHCG in % ([18]; dosage 320 g/ha): 90% | Post-emergence action against LOLRI in % ([19]; dosage 80 g/ha): 80% | Post-emergence action against LOLRI in % ([19]; dosage 320 g/ha): 80% | Post-emergence action against MATIN in % ([20]; dosage 80 g/ha): 80% | Post-emergence action against MATIN in % ([20]; dosage 320 g/ha): 80% | Post-emergence action against PHBPU in % ([21]; dosage 80 g/ha): 90% | Post-emergence action against PHBPU in % ([21]; dosage 320 g/ha): 100% | Post-emergence action against POLCO in % ([22]; dosage 80 g/ha): 80% | Post-emergence action against POLCO in % ([22]; dosage 320 g/ha): 80% | Post-emergence action against SETVI in % ([23]; dosage 80 g/ha): 80% | Post-emergence action against SETVI in % ([23]; dosage 320 g/ha): 80% | Post-emergence action against VERPE in % ([24]; 320 g/ha, VERPE): 80% | Post-emergence action against VERPE in % ([24]; dosage 80 g/ha): 80% | Post-emergence action against VIOTR in % [25]: 80%

Pre-emergence action against ORYSA in % ([12]; 80 g/ha): 0% | Pre-emergence action against ORYSA in % ([12]; 320 g/ha): 0% | Pre-emergence action against ZEAMX in % ([13]; 80 g/ha): 0% | Post-emergence action against ORYSA in % ([26]; 80 g/ha): 0% | Post-emergence action against ORYSA in % ([26]; 320 g/ha): 10% | Post-emergence action against TRZAS in % [27]: 10% | Post-emergence action against ZEAMX in % ([28]; 80 g/ha): 0% | Post-emergence action against ZEAMX in % ([28]; 320 g/ha): 0%
Structure (SMILES): C=CCNC(=O)COc1nn(-c2ncccc2F)c(-c2ccc(F)nc2)c1Br [Example I-31]
Pre-emergence action against AMARE in % ([2]; 320 g/ha): 90% | Pre-emergence action against AVEFA in % ([3]; 320 g/ha): 80% | Pre-emergence action against ECHCG in % [4]: 90% | Pre-emergence action against POLCO in % ([8]; dosage 320 g/ha): 80% | Pre-emergence action against SETVI in % ([9]; dosage 320 g/ha): 90% | Pre-emergence action against VERPE in % [10]: 90% | Pre-emergence action against VIOTR in % ([11]; 320 g/ha, Viola tricolor): 90% | Post-emergence action against AMARE in % [16, 31]: 80% | Post-emergence action against POLCO in % ([22]; dosage 320 g/ha): 80% | Post-emergence action against VIOTR in % [25]: 80%

Pre-emergence action against ORYSA in % ([12]; 80 g/ha): 0% | Pre-emergence action against ORYSA in % ([12]; 320 g/ha): 0% | Pre-emergence action against ZEAMX in % ([13]; 80 g/ha): 0% | Pre-emergence action against ZEAMX in % ([13]; 320 g/ha): 0% | Post-emergence action against ORYSA in % ([26]; 80 g/ha): 0%
Structure (SMILES): CSCCOC(=O)COc1nn(-c2ccccn2)c(-c2ccc(F)nc2)c1Br [Example I-95]
Pre-emergence action against ALOMY ([1]; 320 g/ha): 80% | Pre-emergence action against AMARE in % ([2]; 80 g/ha): 90% | Pre-emergence action against AMARE in % ([2]; 320 g/ha): 100% | Pre-emergence action against AVEFA in % ([3]; 320 g/ha): 80% | Pre-emergence action against MATIN in % [6]: 80% | Pre-emergence action against POLCO in % ([8]; dosage 320 g/ha): 90% | Pre-emergence action against SETVI in % ([9]; dosage 320 g/ha): 100% | Pre-emergence action against VERPE in % [10]: 100% | Pre-emergence action against VIOTR in % ([11]; 320 g/ha, Viola tricolor): 100% | Pre-emergence action against VIOTR in % ([11]; dosage 80 g/ha): 100% | Post-emergence action against ABUTH in % ([14]; 80 g/ha): 80% | Post-emergence action against ABUTH in % ([14]; 320 g/ha): 80% | Post-emergence action against ALOMY in % ([15]; 320 g/ha): 100% | Post-emergence action against AMARE in % [16, 30]: 80% | Post-emergence action against AMARE in % [16, 31]: 90% | Post-emergence action against AVEFA in % ([17]; 80 g/ha): 80% | Post-emergence action against AVEFA in % ([17]; 320 g/ha): 80% | Post-emergence action against ECHCG in % ([18]; dosage 320 g/ha): 90% | Post-emergence action against LOLRI in % ([19]; dosage 320 g/ha): 80% | Post-emergence action against MATIN in % ([20]; dosage 320 g/ha): 80% | Post-emergence action against POLCO in % ([22]; dosage 80 g/ha): 80% | Post-emergence action against POLCO in % ([22]; dosage 320 g/ha): 80% | Post-emergence action against SETVI in % ([23]; dosage 320 g/ha): 90% | Post-emergence action against VERPE in % ([24]; 320 g/ha, VERPE): 80% | Post-emergence action against VERPE in % ([24]; dosage 80 g/ha): 80% | Post-emergence action against VIOTR in % [25]: 80%
